# Experiments:
# [1] = tested on: PDGF-R; test: PDGF-R Assay (cellular ELISA, U1242 cells); type: cell-based; parameters: concentration or dose not given beside the values; details: protocol P.119
# Outline: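 Cellular ELISA for receptor autophosphorylation: after 2 hr test-compound treatment of serum-free U1242 cells at 37°C, ligand is added for 5–10 min, cells are lysed (HNTG) and receptor captured by specific antibody. Anti-phosphotyrosine plus secondary antibody with ABTS colour read at 410/630 nm, compared with compound-free control cells.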
# [2] = tested on: FLK-1 receptor; test: FLK-1 Assay (cellular/catalytic ELISA, VEGF-stimulated phosphotyrosine); type: cell-based; parameters: concentration or dose not given beside the values; details: protocol P.110
# Outline: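 Receptor phosphotyrosine ELISA: Flk-1-expressing NIH3T3 C7#3 cells, starved overnight in 0.1% FBS medium, received compound (1:200 final dilution, 0.5% DMSO) for 2 h at 37 °C, then VEGF. Anti-FLK-1-captured receptor was probed with anti-phosphotyrosine UB40 and peroxidase/ABTS read-out, relative to cells without compound.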
SMILES,PDGF Kinase % Inhibition (P.119) [1] [%],Flk Kinase % Inhibition (P.110) [2] [%]
Cc1ccc(C)c(C=C2C(=O)Nc3c(Br)cc(Br)c(C)c32)c1 [10737/H07],−17.7,15.5
Cc1c(Br)cc(Br)c2c1C(=Cc1ccc3ccccc3c1)C(=O)N2 [10737/H08],−26.9,10.0
Cc1c(Br)cc(Br)c2c1C(=Cc1ccc(Oc3ccccc3)cc1)C(=O)N2 [10737/H09],−11.7,5.5
Cc1c(Br)cc(Br)c2c1C(=Cc1cccc(Oc3ccc(C(C)(C)C)cc3)c1)C(=O)N2 [10737/H10],−12.9,10.5
Cc1c(Br)cc(Br)c2c1C(=Cc1cccc(Oc3cccc(C(F)(F)F)c3)c1)C(=O)N2 [10737/H11],−16.5,14.5

# Reference: patent US20020026053A1, “Novel 3-(substituted) -2- indolinones compounds and use thereof as inhibitors of protein kinase activity” (priority 1997, published 2002)
